Here are results for twelve molecules from ChEMBL document CHEMBL3244423, “Cardioselectivity as a function of molecular structure in beta-adrenoceptor blocking agents of the 1-(para-substituted aryloxy)-3-(isopropylamino)propan-2-ol type” (J Med Chem, 1978).

In test [1] the target is Beta-1 adrenergic receptor (Rattus norvegicus, UniProt P18090). Put plainly: Antagonist activity at beta1 adrenergic receptor in isolated rat atria. The settings on record: read-out: pA2 (converted).
The target of test [2] is Beta-2 adrenergic receptor (Rattus norvegicus, UniProt P10608). Put plainly: Antagonist activity at beta2 adrenergic receptor in isolated rat stomach fundus. The settings on record: read-out: pA2 (converted).
Test [3] can be described thus: Selectivity ratio of beta1 adrenergic receptor in isolated rat atria to beta2 adrenergic receptor in isolated rat stomach fundus.
The test system of test [4] is Felis catus. The experiment in a line: In vivo antagonist activity at beta1 adrenergic receptor in cat assessed as myocardial activity. It is filed as functional, organism-based. As to conditions: Myocardium, read-out: pA2 (converted).
The test system of test [5] is Felis catus. Put plainly: In vivo antagonist activity at beta2 adrenergic receptor in cat assessed as vascular activity. The class given is organism-based. As to conditions: read-out: pA2 (converted).
The species named for test [6] is Felis catus. The experiment in a line: Selectivity ratio of antagonist activity at beta1 adrenergic receptor in cat to antagonist activity at beta2 adrenergic receptor in cat.
The target in test [7] is Beta-1 adrenergic receptor (Rattus norvegicus) (UniProt P18090). The experiment in a line: Agonist activity at beta1 adrenergic receptor in isolated rat atria in presence of propranolol.
The target of test [8] is Beta-2 adrenergic receptor (Rattus norvegicus) (UniProt P10608). Put plainly: Agonist activity at beta2 adrenergic receptor in isolated rat stomach fundus in presence of propranolol.

The source made the active and inactive calls. The calls are words filed in the database; no cut-off is given here.

Beta-2 adrenergic receptor, sequence (P10608 whole entry): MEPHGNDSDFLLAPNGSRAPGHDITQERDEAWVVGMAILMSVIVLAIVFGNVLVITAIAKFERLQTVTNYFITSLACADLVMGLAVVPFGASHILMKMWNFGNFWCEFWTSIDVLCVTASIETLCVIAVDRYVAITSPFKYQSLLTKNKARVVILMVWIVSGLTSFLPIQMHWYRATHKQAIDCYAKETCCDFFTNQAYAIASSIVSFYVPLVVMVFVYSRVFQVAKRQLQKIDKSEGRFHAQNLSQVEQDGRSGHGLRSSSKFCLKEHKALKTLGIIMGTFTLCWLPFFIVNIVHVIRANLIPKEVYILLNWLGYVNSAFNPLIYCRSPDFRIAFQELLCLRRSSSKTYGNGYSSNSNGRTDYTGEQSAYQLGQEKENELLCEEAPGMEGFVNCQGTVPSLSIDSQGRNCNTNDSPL
Beta-1 adrenergic receptor, sequence (P18090 whole entry): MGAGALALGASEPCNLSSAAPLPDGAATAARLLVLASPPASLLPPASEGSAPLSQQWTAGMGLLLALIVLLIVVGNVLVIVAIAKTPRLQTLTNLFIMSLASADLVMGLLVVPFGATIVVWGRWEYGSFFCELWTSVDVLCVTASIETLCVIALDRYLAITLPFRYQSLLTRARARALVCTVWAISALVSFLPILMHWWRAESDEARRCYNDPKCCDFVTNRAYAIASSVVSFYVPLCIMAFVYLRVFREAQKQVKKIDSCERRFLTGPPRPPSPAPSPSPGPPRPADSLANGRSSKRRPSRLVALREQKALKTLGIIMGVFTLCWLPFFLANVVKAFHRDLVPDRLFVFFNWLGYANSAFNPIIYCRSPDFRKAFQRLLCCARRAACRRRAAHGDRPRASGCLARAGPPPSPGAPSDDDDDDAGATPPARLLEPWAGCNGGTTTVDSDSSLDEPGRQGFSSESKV
Beta-2 adrenergic receptor (Rattus norvegicus), sequence (P10608 whole entry, looked up): as the sequence (P10608 whole entry) above
Beta-1 adrenergic receptor (Rattus norvegicus), sequence (P18090 whole entry, looked up): as the sequence (P18090 whole entry) above

On to `CCc1ccc(OCC(O)CNC(C)C)cc1` (racemic), for which the Kb in test [1] was 0.0631 µM; in test [2] it was 0.0316 µM. Moreover, in test [3], the Selectivity ratio amounted to 0.5.
For `CNC(=O)c1ccc(OCC(O)CNC(C)C)cc1` (racemic), the Kb in test [1] was 3.63 µM; in test [2] it was 1000 µM. Also, in test [3], the Selectivity ratio was found to be 275.
Turning to `CC(C)NCC(O)COc1ccc(C(N)=O)cc1` (racemic), the Kb in test [1] was 10 µM; in test [2], 15.8 µM. In addition, the Selectivity ratio in test [3] stood at 1.6.
As to `CC(C)NCC(O)COc1ccc2c(c1)CCCNC2=O` (racemic), the Kb in test [1] is 135 µM; in test [2], 81.3 µM. In test [3], the Selectivity ratio came out at 0.6.
Consider `CC(C)NCC(O)COc1ccc2c(c1)OCCNC2=O` (racemic), for which the figures for the Kb in test [1] and in test [2] were 18.2 µM and 45.7 µM, respectively. In test [3], the Selectivity ratio was found to be 2.5.
As for `CC(C)NCC(O)COc1ccc2c(c1)CCCC(=O)N2` (racemic), the Kb in test [4] and in test [5] was 10 µM each time. In test [6], the Selectivity ratio came out at 1.
As to `CC(C)NCC(O)COc1ccc2c(c1)OCC(=O)N2` (racemic), the Kb in test [4] was 2.51 µM; in test [5], 3.16 µM. In addition, the Selectivity ratio in test [6] worked out at 1.3.
As for `CCCc1ccc(OCC(O)CNC(C)C)cc1.Cl` (racemic), the Kb in test [1] is 0.0251 µM; in test [2] it was 0.158 µM. In addition, the Selectivity ratio in test [3] was determined as 6.5.
The corresponding values for `C/C=C/c1ccc(OCC(O)CNC(C)C)c(OC)c1` (racemic) are 0.0501 µM, 1.26 µM and 25.
As for `C/C=C\c1ccc(OCC(O)CNC(C)C)c(OC)c1` (racemic), the Kb in test [1] was 0.2 µM; in test [2], 0.02 µM. Moreover, the Selectivity ratio in test [3] came to 0.1.
Consider `CC(C)NCC(O)COc1ccc(CC2(C)OCCO2)cc1` (racemic), for which the Kb in test [1] and in test [2] was above 316 µM each time. For the same molecule, the outcome in test [7] and in test [8] was inactive.
As to `CC(=O)Nc1ccc(OCC(O)CNC(C)C)cc1` (stereo not given) [PRACTOLOL], in test [1], the Kb is 0.339 µM.
